Results from US8937187B2, “Method for depigmenting keratin materials using resorcinol derivatives” (L'Oreal, priority 2010, dated 2015).

Tested on: co-culture of keratinocytes and melanocytes
Test: Cytotoxicity by estimation of the incorporation of leucine
Assay type: cell-based
Details: not given
Procedure: The modulatory effect of compound 1 on melanogenesis was measured by the method described in patent FR-[…]. Schmidt, P. […], Anal. Biochem., 235(2), 113-18, 1996. This test is carried out on a co-culture of keratinocytes and melanocytes. […] The test was also carried out with arbutin and kojic acid, which are known depigmenting compounds.

Q: Which Cytotoxicity on co-culture does the source give for O=C1CC(=O)C(Cc2ccc(O)cc2O)C1 (centres unmarked) here?
A: Non-cytotoxic

Q: With OC[C@H]1O[C@@H](Oc2ccc(O)cc2)[C@H](O)[C@@H](O)[C@@H]1O [Arbutin, reference compound] as the compound, how does the Cytotoxicity on co-culture read?
A: Non-cytotoxic

Q: Which Cytotoxicity on co-culture does the source give for O=c1cc(CO)occ1O [Kojic acid, reference compound] here?
A: 100 µM

Q: Which Cytotoxicity on co-culture does the source give for CCCCN1C(=O)CC(Cc2ccc(O)cc2O)C1=O (centres unmarked) [drawing 126] here?
A: Non-cytotoxic

Q: Which Cytotoxicity on co-culture does the source give for CCOC(=O)CN1C(=O)CC(Cc2ccc(O)cc2O)C1=O (centres unmarked) [drawing 128] here?
A: Non-cytotoxic

Q: Which Cytotoxicity on co-culture does the source give for O=C1CC(Cc2ccc(O)cc2O)C(=O)N1CCO (centres unmarked) [drawing 129] here?
A: Non-cytotoxic

Tested on: co-culture of keratinocytes and melanocytes
Test: Inhibitory activity on melanin synthesis (constitutive melanogenesis), ratio of thiouracil to leucine incorporation
Assay type: cell-based
Details: not given
Procedure: The modulatory effect of compound 1 on melanogenesis was measured by the method described in patent FR-A-2 734 825 and also in the article by R. Schmidt, P. Krien and M. Régnier, Anal. Biochem., 235(2), 113-18, 1996. This test is carried out on a co-culture of keratinocytes and melanocytes.
For the compound tested, the following parameters were ascertained: • the cytotoxicity, by estimation of the incorporation of leucine, • the inhibitory activity on melanin synthesis, by estimating the ratio of incorporation of thiouracil to the incorporation of leucine, relative to 100% of the control (the control corresponds to the test carried out without compound tested). The IC50 values (concentration for which 50% of the synthesis of melanin is inhibited) were ascertained.
The test was also carried out with arbutin and kojic acid, which are known depigmenting compounds.

Q: For O=C1CC(Cc2ccc(O)cc2O)C(=O)N1 (centres unmarked) [Compound 1, 3-(2,4-dihydroxybenzyl)pyrrolidine-2,5-dione], which “efficacy in inhibiting melanogenesis compared with arbutin and kojic acid” value is on record?
A: more effective than arbutin and kojic acid

Q: For CCCCN1C(=O)CC(Cc2ccc(O)cc2O)C1=O (centres unmarked) [Compound 7, 3-(2,4-dihydroxybenzyl)-1-butylpyrrolidine-2,5-dione], which “efficacy in inhibiting melanogenesis compared with arbutin and kojic acid” value is on record?
A: more effective than arbutin and kojic acid

Q: For O=C1CC(Cc2ccc(O)cc2O)C(=O)N1CCO (centres unmarked) [Compound 12, 3-(2,4-dihydroxybenzyl)-1-(2-hydroxyethyl)pyrrolidine-2,5-dione], which “efficacy in inhibiting melanogenesis compared with arbutin and kojic acid” value is on record?
A: more effective than arbutin and kojic acid

Q: With CCOC(=O)CN1C(=O)CC(Cc2ccc(O)cc2O)C1=O (centres unmarked) [Compound 32, ethyl [3-(2,4-dihydroxybenzyl)-2,5-dioxopyrrolidin-1-yl]acetate] as the compound, how does the “efficacy in inhibiting melanogenesis compared with arbutin and kojic acid” value read?
A: more effective than arbutin and kojic acid

Same assay, conditions: thiouracil/leucine incorporation ratio relative to 100% of the control, read-out: IC50 (concentration for which 50% of the synthesis of melanin is inhibited)

Q: With O=C1CC(=O)C(Cc2ccc(O)cc2O)C1 (centres unmarked) as the compound, how does the IC50 read?
A: 52 µM

Q: Which IC50 does the source give for OC[C@H]1O[C@@H](Oc2ccc(O)cc2)[C@H](O)[C@@H](O)[C@@H]1O [Arbutin, reference compound] here?
A: > 500 µM

Q: For O=c1cc(CO)occ1O [Kojic acid, reference compound], which IC50 is on record?
A: > 500 µM

Q: For CCCCN1C(=O)CC(Cc2ccc(O)cc2O)C1=O (centres unmarked) [drawing 126], which IC50 is on record?
A: 8.3 µM

Q: With CCOC(=O)CN1C(=O)CC(Cc2ccc(O)cc2O)C1=O (centres unmarked) [drawing 128] as the compound, how does the IC50 read?
A: 9.2 µM

Q: For O=C1CC(Cc2ccc(O)cc2O)C(=O)N1CCO (centres unmarked) [drawing 129], which IC50 is on record?
A: 14.9 µM

Tested on: not given
Test: not given
Details: not given

Q: Which melting point does the source give for CCCCN1C(=O)CC(Cc2ccc(O)cc2O)C1=O (centres unmarked) [Compound 7, 3-(2,4-dihydroxybenzyl)-1-butylpyrrolidine-2,5-dione] here?
A: 122 to 123 °C
